We go through 28 molecules from patent US11759461B2, “Small molecule inhibitors of cancer stem cells and mesenchymal cancer types” (The Scripps Research Institute, priority 2017, dated 2023).

This test deals with FOXC2-expressing HMLER cells. In words: Cell Titer Glo viability of FOXC2-HMLER cells (high throughput screen and 10-point response). It counts as cell-based. Conditions: Homo sapiens; scored relative to parent compound 2; 72 hours; read-out: Activity Score, inhibition of FOXC2-expressing HMLER cells by Formula II compounds. As to the method: For high throughput screening, FOXC2-HMLER and HMLER cells were plated at 10^3 cells per well in white 384-well plates in 50 μL of MEGM medium (Lonza). Cells were allowed to attach for one hour before compound was transferred to each well as a DMSO solution using a 100 nL pintool head affixed to a PerkinElmer FX instrument. After 72-hour incubation, 30 μL of a Cell Titer Glo solution (diluted 1:6 in water, Promega) was dispensed into each well and luminance values were recorded using an Envision plate reader. […] All other miniaturized, selective viability experiments were performed as above using the indicated growth medium.
More specifically, in the high throughput screening assay above, each cell line was plated at 1,000 cells per well in 384-well plates, treated for 72 hours with 2 μM of test compound, and the viability of each line was determined in parallel by Cell Titer Glo (Promega) luminance measurements.
In general terms: Cellular ATP, detected with luciferase, serves as a proxy for viable cell number.

Regarding `CCc1ccc(NCc2cc3cc(OC)c(OC)cc3n(CC(=O)Nc3cccc(C)c3)c2=O)cc1` [Compound 2DE], the IC50 is greater than 20 µM.

Regarding `COc1ccc2cc(CNc3ccc(C)cc3)c(=O)n(CC(=O)Nc3ccc(F)cc3F)c2c1` [Compound 2DF], the IC50 was greater than 20 µM.

Consider `Cc1ccc(NCc2cc3cc4c(cc3n(CC(=O)Nc3cccc(C)c3)c2=O)OCCO4)cc1` [Compound 2DG], for which the IC50 was greater than 20 µM.

`COc1ccc(NC(=O)Cn2c(=O)c(CNc3ccccc3)cc3ccc(OC)cc32)cc1` [Compound 2DH]: the IC50 is greater than 20 µM.

Regarding `COc1cc2cc(CNc3ccc(C)cc3)c(=O)n(CC(=O)Nc3ccc(C)c(C)c3)c2cc1OC` [Compound 2DI], the IC50 was greater than 20 µM.

Regarding `COc1cc2cc(CNc3ccc(C)cc3)c(=O)n(CC(=O)Nc3cc(C)cc(C)c3)c2cc1OC` [Compound 2DJ], the IC50 was greater than 20 µM.

Regarding `CCc1ccc(NCc2cc3cc(OC)c(OC)cc3n(CC(=O)Nc3ccccc3C)c2=O)cc1` [Compound 2DK], the IC50 is greater than 20 µM.

In the case of `CCc1ccc(NC(=O)Cn2c(=O)c(CNc3ccc(OC)cc3)cc3ccc(OC)cc32)cc1` [Compound 2DL], the IC50 is greater than 20 µM.

For `COc1ccc2cc(CNc3ccccc3)c(=O)n(CC(=O)Nc3ccccc3)c2c1` [Compound 2DM], the IC50 was greater than 20 µM.

For the molecule `COc1ccc2cc(CNc3ccc(C)cc3)c(=O)n(CC(=O)Nc3cccc(F)c3)c2c1` [Compound 2DN], the IC50 was greater than 20 µM.

Consider `COc1ccc(NC(=O)Cn2c(=O)c(CNc3ccccc3)cc3cc(OC)c(OC)cc32)cc1` [Compound 2DO], for which the IC50 was greater than 20 µM.

For the molecule `COc1cc2cc(CNc3ccccc3)c(=O)n(CC(=O)Nc3cc(Cl)ccc3C)c2cc1OC` [Compound 2DP], the IC50 is greater than 20 µM.

`CCc1ccc(NCc2cc3ccc(OC)cc3n(CC(=O)NCc3ccc(C)cc3)c2=O)cc1` [Compound 2DQ]: the IC50 is greater than 20 µM.

As for `COc1ccc2cc(CNc3ccc(C)cc3)c(=O)n(CC(=O)Nc3ccc(C)c(Cl)c3)c2c1` [Compound 2DR], the IC50 is greater than 20 µM.

Take `COc1ccc2cc(CNc3ccccc3)c(=O)n(CC(=O)Nc3ccc(C(C)C)cc3)c2c1` [Compound 2DS]: the IC50 was greater than 20 µM.

In the case of `CCc1ccc(NCc2cc3ccc(OC)cc3n(CC(=O)Nc3ccc(C)cc3)c2=O)cc1` [Compound 2DT], the IC50 was greater than 20 µM.

For the molecule `COc1ccccc1NC(=O)Cn1c(=O)c(CNc2ccccc2)cc2ccc(C)cc21` [Compound 2DU], the IC50 was greater than 20 µM.

For the molecule `CCc1ccc(NCc2cc3ccc(OC)cc3n(CC(=O)Nc3ccccc3OC)c2=O)cc1` [Compound 2DV], the IC50 was greater than 20 µM.

For the molecule `CCc1ccc(NCc2cc3cc4c(cc3n(CC(=O)Nc3ccccc3)c2=O)OCCO4)cc1` [Compound 2DW], the IC50 is greater than 20 µM.

On to `COc1cccc(NC(=O)Cn2c(=O)c(CNc3ccccc3)cc3ccc(OC)cc32)c1` [Compound 2DX], for which the IC50 is greater than 20 µM.

On to `COc1ccc(NCc2cc3cc4c(cc3n(CC(=O)NCc3ccccc3)c2=O)OCCO4)cc1` [Compound 2DY], for which the IC50 was greater than 20 µM.

Consider `COc1ccc2cc(CNc3ccc(C)cc3)c(=O)n(CC(=O)NCc3ccc(F)cc3)c2c1` [Compound 2DZ], for which the IC50 is greater than 20 µM.

In the case of `CCOC(=O)c1ccccc1NC(=O)Cn1c(=O)c(CNc2ccc(C)cc2)cc2ccc(OC)cc21` [Compound 2D], the IC50 lay within 1 to 20 µM.

Take `CCc1ccc(NCc2cc3ccc(OC)cc3n(CC(=O)NCc3ccccc3)c2=O)cc1` [Compound 2EA]: the IC50 is greater than 20 µM.

As for `COc1ccc2cc(CNc3ccc(C)cc3)c(=O)n(CC(=O)Nc3ccccc3Cl)c2c1` [Compound 2EB], the IC50 is greater than 20 µM.

On to `CCc1ccc(NCc2cc3cc(OC)c(OC)cc3n(CC(=O)Nc3ccc(C)c(C)c3)c2=O)cc1` [Compound 2EC], for which the IC50 was greater than 20 µM.

For `COc1ccc2cc(CNc3ccccc3)c(=O)n(CC(=O)Nc3cccc(C)c3)c2c1` [Compound 2ED], the IC50 was greater than 20 µM.

As for `COc1ccc2cc(CNc3ccccc3)c(=O)n(CC(=O)Nc3cccc(C(F)(F)F)c3)c2c1` [Compound 2EE], the IC50 is greater than 20 µM.
